Measured values from ChEMBL document CHEMBL3826959, “Modification of existing antibiotics in the form of precursor prodrugs that can be subsequently activated by nitroreductases of the target pathogen” (Bioorg Med Chem Lett, 2016).
≈ marks a conversion by molar mass, not a printed value. Calls of active or inactive are those of the source. The calls are words filed in the database; no cut-off is given here.

Legend:
[1] = test system: Staphylococcus saprophyticus; experiment: Antibacterial activity against Staphylococcus saprophyticus ATCC 15305 measured after 18 hrs by agar dilution method; type: functional; details: ATCC 15305, 18 h
[2] = test system: Staphylococcus saprophyticus; experiment: Antibacterial activity against Staphylococcus saprophyticus ATCC 15305 measured after 18 hrs by broth dilution method; type: functional; details: ATCC 15305, 18 h
[3] = test system: Staphylococcus saprophyticus; experiment: microbe, parasite or virus in culture; details: ATCC 15305, read-out: DIZ
Description: Antibacterial activity against Staphylococcus saprophyticus ATCC 15305 assessed as zone of inhibition at 300 ug/disc measured after 16 to 24 hrs by agar diffusion method

[4] = Drug level assessed as Staphylococcus saprophyticus ATCC 15305 nitroreductase B mediated compound formation using 130 uM NO2-SMX measured after 200 mins in presence of NADPH-cofactor generating system by LC-MS/MS analysis; type: ADME; details: isolated protein
[5] = test system: Staphylococcus saprophyticus; experiment: Antibacterial activity against Staphylococcus saprophyticus ATCC 15305 assessed as zone of inhibition at 54 ug/disc measured after 16 to 24 hrs by agar diffusion method; type: functional; details: read-out: DIZ
[6] = Prodrug activation assessed as Staphylococcus saprophyticus ATCC 15305 nitroreductase B mediated sulfamethoxazole formation at 2 mM in presence of NADPH-cofactor generating system by ESI-MS analysis; details: isolated protein, 2000 µM
[7] = Prodrug activation assessed as Staphylococcus saprophyticus ATCC 15305 nitroreductase B mediated N-OH-sulfamethoxazole formation at 2 mM in presence of NADPH-cofactor generating system by ESI-MS analysis; details: isolated protein, 2000 µM
[8] = Prodrug activation assessed as Staphylococcus saprophyticus ATCC 15305 nitroreductase B mediated […] at 130 uM measured after 200 mins in presence of NADPH-cofactor generating system by LC-MS/MS analysis; details: isolated protein
[9] = Prodrug activation assessed as Staphylococcus saprophyticus ATCC 15305 nitroreductase B mediated […] at 2 mM in presence of NADPH-cofactor generating system by ESI-MS analysis; details: isolated protein, 2000 µM
[10] = Prodrug activation assessed as Staphylococcus saprophyticus ATCC 15305 nitroreductase B mediated N-OH-sulfamethoxazole formation at 130 uM measured after 200 mins in presence of NADPH-cofactor generating system by LC-MS/MS analysis; details: isolated protein
[11] = Drug level assessed as Staphylococcus saprophyticus ATCC 15305 nitroreductase B mediated compound formation using at 2 mM NO2-SMX 2 mM in presence of NADPH-cofactor generating system by ESI-MS analysis; type: ADME; details: isolated protein, 2000 µM
[12] = Prodrug activation assessed as Staphylococcus saprophyticus ATCC 15305 nitroreductase B mediated sulfamethoxazole formation at 130 uM measured after 200 mins in presence of NADPH-cofactor generating system by LC-MS/MS analysis; details: isolated protein
[13] = test system: Staphylococcus saprophyticus; experiment: Activity at Staphylococcus saprophyticus ATCC 15305 nitroreductase B by UV-vis spectrophotometry based Michaelis-Menten plot analsysis
[14] = test system: Staphylococcus saprophyticus; experiment: Antibacterial activity against Staphylococcus saprophyticus ATCC 15305 assessed as zone of inhibition at 57 ug/disc measured after 16 to 24 hrs by agar diffusion method; type: functional
[15] = Stability of the compound; type: physicochemical
[16] = test system: Staphylococcus saprophyticus; experiment: Antibacterial activity against Staphylococcus saprophyticus ATCC 15305 assessed as zone of inhibition at 51 ug/disc measured after 16 to 24 hrs by agar diffusion method; type: functional; details: read-out: DIZ
[17] = test system: Staphylococcus saprophyticus; experiment: Antibacterial activity against Staphylococcus saprophyticus ATCC 15305 assessed as bacterial survival measured after 18 hrs by broth dilution method; type: functional

NC(=O)N/N=C/c1ccc([N+](=O)[O-])o1 [NITROFURAZONE]
MIC [1]: 128 µg/mL (≈ 0.646 mM) | MIC [2]: 32 µg/mL (≈ 0.162 mM)

O=C1CN(/N=C/c2ccc([N+](=O)[O-])o2)C(=O)N1 [NITROFURANTOIN]
zone of inhibition at 300 µg/disc [3]: 18 mm | MIC [1]: 8 µg/mL (≈ 0.0336 mM) | MIC [2]: 8 µg/mL (≈ 0.0336 mM)

Cc1cc(NS(=O)(=O)c2ccc(NO)cc2)no1
Drug metabolism [4]: metabolite_detected | MIC [2]: 2050 µg/mL (≈ 7.61 mM) | zone of inhibition at 54 µg/disc [5]: 10 mm

Cc1cc(NS(=O)(=O)c2ccc([N+](=O)[O-])cc2)no1
Drug metabolism [6]: metabolite_notdetected | MIC [1]: 2050 µg/mL (≈ 7.23 mM) | Drug metabolism [7]: metabolite_detected | MIC [2]: 2050 µg/mL (≈ 7.23 mM) | Drug metabolism [8]: metabolite_detected | Drug metabolism [9]: metabolite_detected | Drug metabolism [10]: metabolite_detected | Drug metabolism [11]: metabolite_detected | Drug metabolism [12]: metabolite_detected | Km [13]: 92.6 µM | kcat [13]: 2.95 s⁻¹ | diameter of the inhibition zone (DIZ) [14]: inactive

Cc1cc(NS(=O)(=O)c2ccc(N=O)cc2)no1
Drug metabolism [4]: metabolite_detected | Stability [15]: Unstable

Cc1cc(NS(=O)(=O)c2ccc(N)cc2)no1 [SULFAMETHOXAZOLE]
MIC [1]: 2050 µg/mL (≈ 8.09 mM) | Drug metabolism [4]: metabolite_detected | MIC [2]: 4100 µg/mL (≈ 16.2 mM) | zone of inhibition at 51 µg/disc [16]: 16 mm | Activity [17]: 12%
